In experiment [1] the test system is GUMC-403. The experiment can be described thus: viability at highest tested concentration (max response) relative to DMSO (% of DMSO control); higher = less cytotoxic. The conditions noted are these: library / dose series: MIPE library, 11-point 1:3 dilution, 48 h. In short, it runs like this:
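Conditionally reprogrammed GUMC-403 papilloma cells from a patient were plated at 700/well in 5 μL F + Y medium in 1536-well plates and left overnight at 37 °C. A pin tool then added 23 nL of library compounds as an 11-point 1:3 series, for 48 h. CellTiter-Glo luminescence was read on a ViewLux and scaled with vehicle wells set to 100% and empty wells to 0%. Each value gives viability at the highest tested concentration relative to vehicle control.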

Experiment [2] has as its system GUMC-403. The experiment can be described thus: AC50 for reduction of cell viability; higher = less potent. To be noted: library / dose series: MIPE library, 11-point 1:3 dilution; 48 h.

Turning to `CCCCOc1c(C(=O)c2c(F)cc(C)cc2F)cnc2[nH]ncc12`, in experiment [1] (top concentration 46.1 µM), the viability stood at 75.8. Besides, the “AC50 for reduction of cell viability” value in experiment [2] came to 8.33 µM.
The compound `Cc1cnc(Nc2ccc(N3CCN(C)CC3)cc2)nc1Nc1cccc([S+](=O)([O-])NC(C)(C)C)c1` registered a viability in experiment [1] (top concentration 46.1 µM) of 30.2. The “AC50 for reduction of cell viability” value in experiment [2] was determined as 16.6 µM.
On to `CCn1nnc2c(N3CCOCC3)nc(-c3ccc(NC(=O)Nc4ccc(C(=O)N5CCN(C)CC5)cc4)cc3)nc21`, for which, in experiment [1] (top concentration 46.1 µM), the viability came to 54.4. In experiment [2], the “AC50 for reduction of cell viability” value is 0.00935 µM.
In the same order, the values of `Cc1n[nH]c2ccc(-c3cncc(OC[C@@H](N)Cc4c[nH]c5ccccc45)c3)cc12` are 7.23 and 1.87 µM.
In the same order, the values of `CC1(C)CC(=O)c2c(C(F)(F)F)nn(-c3ccc(C(N)=O)c(NC4CCC(O)CC4)c3)c2C1` (stereo not drawn) are 67.7 and 0.296 µM.
Turning to `CC1=C(/C=C/C(C)=C/C=C/C(C)=C/C(=O)Nc2ccc(O)cc2)C(C)(C)CCC1`, in experiment [1] (top concentration 92.2 µM), the viability amounted to 4.3. For the same compound, the “AC50 for reduction of cell viability” value in experiment [2] worked out at 48.1 µM.
For the compound `COc1cc(Nc2ncc(F)c(Nc3ccc4c(n3)N(COP(=O)(O)O)C(=O)C(C)(C)O4)n2)cc(OC)c1OC`, in experiment [1] (top concentration 46.1 µM), the viability is 34.2. Also, the “AC50 for reduction of cell viability” value in experiment [2] turned out to be 0.935 µM.
In the same order, the values of `Oc1ccc(-c2ccc(-c3cc(Nc4cccc(CNC5CC5)c4)[nH]n3)cc2)c(O)c1` are 13.7 and 13.2 µM.
`COC[C@H](NC(=O)c1cnc(C)s1)C(=O)N[C@@H](COC)C(=O)N[C@@H](Cc1ccccc1)C(=O)[C@@]1(C)CO1` showed a viability in experiment [1] (top concentration 46.1 µM) of 8.89. The “AC50 for reduction of cell viability” value in experiment [2] was determined as 6.62 µM.
In experiment [1] (top concentration 46.1 µM), `C[C@@H](Oc1ccc2[nH]nc(/C=C/c3cnn(CCO)c3)c2c1)c1c(Cl)cncc1Cl` had a viability of 18.4. In addition, in experiment [2], the “AC50 for reduction of cell viability” value came to 16.6 µM.
Turning to `CC(C)C[C@H](NC(=O)[C@@H](NC(=O)c1cccc(-c2ccccc2)n1)[C@@H](C)O)B(O)O`, the viability in experiment [1] (top concentration 46.1 µM) is 26.3. Further, in experiment [2], the “AC50 for reduction of cell viability” value was found to be 1.87 µM.
Regarding `COc1cc(N2CCC(C(N)=O)CC2)ccc1Nc1nc(N)c(Cl)c(Nc2ccccc2[S+](=O)([O-])C(C)C)n1`, in experiment [1] (top concentration 46.1 µM), the viability worked out at 68.2. In addition, the “AC50 for reduction of cell viability” value in experiment [2] amounted to 8.33 µM.
Take `COc1ccc(Nc2cc(-c3cnc(N)nc3)nc(N3CCOCC3)n2)cn1`: the viability in experiment [1] (top concentration 46.1 µM) was 31.5. For the same compound, the “AC50 for reduction of cell viability” value in experiment [2] is 2.96 µM.
As to `COC1=CC=C(C=N1)C/2=C/C3=C(C)N=C(N)N=C3N(C4CCC(CC4)OCCO)C2=O` (stereo not drawn), the viability in experiment [1] (top concentration 46.1 µM) is 4.47. For the same compound, in experiment [2], the “AC50 for reduction of cell viability” value was found to be 0.264 µM.
For `O=C(Nc1ccc([N+](=O)[O-])cc1Cl)c1cc(Cl)ccc1O` the same measures were 53.9 and 4.18 µM.
In the same order, the values of `CC(C)Oc1cc(Nc2nc(N[C@@H](C)c3ccc(F)cn3)ncc2Cl)n[nH]1` are 58.4 and 8.33 µM.
In experiment [1] (top concentration 46.1 µM), `O=C(NC1CCNCC1)c1n[nH]cc1NC(=O)c1c(Cl)cccc1Cl` registered a viability of 10.5. For the same compound, the “AC50 for reduction of cell viability” value in experiment [2] turned out to be 1.05 µM.
For `C[C@@H]\1COC(=N1)\NC2=CC3=C(C=C2)N=CN=C3NC4=CC(=C(OCC5=NC=CS5)C=C4)Cl`, the viability in experiment [1] (top concentration 46.1 µM) turned out to be 54.5. In experiment [2], the “AC50 for reduction of cell viability” value was 0.59 µM.
Consider `C=CCNc1c(O)cc2c(O)c1C[C@@H](C)C[C@H](OC)[C@H](O)[C@@H](C)/C=C(/C)[C@H](OC(N)=O)[C@@H](OC)/C=C\C=C(\C)C(=O)N2`, for which, in experiment [1] (top concentration 46.1 µM), the viability was determined as 68.9. Also, the “AC50 for reduction of cell viability” value in experiment [2] is 4.69 µM.
For `CN1CC[C@H]([C@@H](O)C1)C2=C(O)C=C(O)C3=C2O\C(=C/C3=O)C4=CC=CC=C4Cl` the same measures were 61.2 and 0.132 µM.
As to `OC[C@H]1OC(OC2=CC3=C(C(=C2)O)C(=O)\C(=C/O3)C4=CC=C(O)C=C4)[C@H](O)[C@@H](O)[C@@H]1O` (stereo partly drawn), the viability in experiment [1] (top concentration 46.1 µM) stood at 21.4. For the same compound, the “AC50 for reduction of cell viability” value in experiment [2] came to 9.35 µM.
Take `CNC(=O)c1ccc(N2C(=S)N(c3cnc(C#N)c(C(F)(F)F)c3)C(=O)C23CCC3)cc1F`: the viability in experiment [1] (top concentration 46.1 µM) came out at 16.6. In addition, the “AC50 for reduction of cell viability” value in experiment [2] came out at 13.2 µM.
For `COc1cccc2cc(-c3nc(C4CCC(C(=O)O)CC4)n4ncnc(N)c34)[nH]c12` (stereo not drawn) the same measures were 59.5 and 0.187 µM.
`COC(=O)/C=C/C(=O)OC` yielded a viability in experiment [1] (top concentration 46.1 µM) of 55.3. In experiment [2], the “AC50 for reduction of cell viability” value was determined as 3.72 µM.
